# Results reported in article PMC9508239 (Nature Communications, 2022).
# Assays:
# IR D496K = experiment: Auto-phosphorylation of IR in 293FT cells expressing IR D496K; type: cell-based, human
# Protocol: (§1) For the activation assay, the short isoform of human IR in pCS2-MYC was used as described previously[20],[49]. Plasmid transfections into 293FT cells were performed with Lipofectamin^TM 2000 (Invitrogen).
# (§2) The cells were incubated with the lysis buffer B [50 mM Hepes pH 7.4, 150 mM NaCl, 10% Glycerol, 1% Triton X-100, 1 mM EDTA, 100 mM sodium fluoride, 2 mM sodium orthovanadate, 20 mM sodium pyrophosphate, 0.5 mM dithiothreitol (DTT), 2 mM phenylmethylsulfonyl fluoride (PMSF)] supplemented with cOmplete Protease Inhibitor Cocktail (Roche), PhosSTOP (Sigma), and 25 U/ml turbo nuclease (Accelagen) on ice for 1 h. After centrifuging at 20,817×g at 4 °C for 10 min, the concentrations of cell lysate were measured using Micro BCA Protein Assay Kit (Thermo Scientific). About 50–60 μg total proteins were analyzed by SDS-PAGE and quantitative Western blotting. […] For quantitative western blots, anti-rabbit immunoglobulin G (IgG) (H + L) (WB, 1:5000; Dylight 800 conjugates, Cat. #5151) and anti-mouse IgG (H + L) (WB, 1:5000; Dylight 680 conjugates, Cat. #5470) (Cell Signaling) were used as secondary antibodies. […]
# IR R14A = experiment: Auto-phosphorylation of IR in 293FT cells expressing IR R14A; type: cell-based, human
# Protocol: as §1, §2
# IR F96A = experiment: Auto-phosphorylation of IR in 293FT cells expressing IR F96A; type: cell-based, human; details: 10 nM, 10 min
# Protocol: as §1, §2
# IR E697A = experiment: Auto-phosphorylation of IR in 293FT cells expressing IR E697A; type: cell-based, human
# Protocol: as §1, §2
# blood glucose = experiment: Oral glucose tolerance test after chronic treatment; type: in vivo, mouse; set-up: Mean Diff. of blood glucose (OGTT) / blood glucose (OGTT) / Supplementary Figure 10d (area under the OGTT glucose curve): unit not given here; details: for Mean Diff. of blood glucose (OGTT), PBS vs. treatment: PBS minus treatment, Tukey's multiple comparisons test; for Mean Diff. of blood glucose (OGTT): Dunnett's multiple comparisons test; for Supplementary Figure 10d (area under the OGTT glucose curve): time 0-120
# Protocol: For the oral glucose tolerance test, mice were fasted for 6 h and their blood glucose levels (T = 0) were measured with tail bleeding using a glucometer (AlphaTRAK). After then, glucose (2 g/kg body weight) was administered by oral gavage. Blood glucose levels were measured at the indicated time points after glucose administration. For Fig. S10f, 2 months old male mice were fasted for 14 h. […] One hour later, livers were collected.
# IR R14W = experiment: Auto-phosphorylation of IR in 293FT cells expressing IR R14W; type: cell-based, human
# Protocol: as §1, §2
# IR = experiment: Functional IR levels in liver after treatment (Fig. S10e,f); type: in vivo, mouse
# Protocol: as §2
# For the oral glucose tolerance test, mice were fasted for 6 h and their blood glucose levels (T = 0) were measured with tail bleeding using a glucometer (AlphaTRAK). […] Blood glucose levels were measured at the indicated time points after glucose administration. […]
substance,measurement,setting,value
insulin: native IR ligand used as comparator; Humulin in the in vivo tests,IR activation,IR D496K,reduced insulin-dependent IR activation
same,IR activation,IR R14A,reduced insulin-dependent IR activation
same,IR activation,IR F96A,defective insulin-dependent activation
same,IR activation,IR E697A,largely diminished IR activation by insulin
same,"Mean Diff. of blood glucose (OGTT), PBS vs. treatment",blood glucose; Row 1 (time 0),-8
same,Mean Diff. of blood glucose (OGTT),blood glucose; Row 1 vs. Row 2 (time 0 minus time 15),-254.8
same,Mean Diff. of blood glucose (OGTT),blood glucose; Row 1 vs. Row 3 (time 0 minus time 30),-168.8
same,Mean Diff. of blood glucose (OGTT),blood glucose; Row 1 vs. Row 4 (time 0 minus time 60),-60
same,Mean Diff. of blood glucose (OGTT),blood glucose; Row 1 vs. Row 5 (time 0 minus time 120),-35.2
same,"Mean Diff. of blood glucose (OGTT), PBS vs. treatment",blood glucose; Row 2 (time 15),-66.2
same,"Mean Diff. of blood glucose (OGTT), PBS vs. treatment",blood glucose; Row 3 (time 30),-9
same,"Mean Diff. of blood glucose (OGTT), PBS vs. treatment",blood glucose; Row 4 (time 60),1
same,"Mean Diff. of blood glucose (OGTT), PBS vs. treatment",blood glucose; Row 5 (time 120),-9.8
same,Supplementary Figure 10d (area under the OGTT glucose curve),blood glucose; mouse 1,37808
same,Supplementary Figure 10d (area under the OGTT glucose curve),blood glucose; mouse 2,37043
same,Supplementary Figure 10d (area under the OGTT glucose curve),blood glucose; mouse 3,31785
same,Supplementary Figure 10d (area under the OGTT glucose curve),blood glucose; mouse 4,39735
same,Supplementary Figure 10d (area under the OGTT glucose curve),blood glucose; mouse 5,46950
same,blood glucose (OGTT),"blood glucose; time 0, mouse 1",197
same,blood glucose (OGTT),"blood glucose; time 0, mouse 2",199
same,blood glucose (OGTT),"blood glucose; time 0, mouse 3",224
same,blood glucose (OGTT),"blood glucose; time 0, mouse 4",245
same,blood glucose (OGTT),"blood glucose; time 0, mouse 5",272
same,blood glucose (OGTT),"blood glucose; time 15, mouse 1",530
same,blood glucose (OGTT),"blood glucose; time 15, mouse 2",406
same,blood glucose (OGTT),"blood glucose; time 15, mouse 3",488
same,blood glucose (OGTT),"blood glucose; time 15, mouse 4",463
same,blood glucose (OGTT),"blood glucose; time 15, mouse 5",524
same,blood glucose (OGTT),"blood glucose; time 30, mouse 1",434
same,blood glucose (OGTT),"blood glucose; time 30, mouse 2",354
same,blood glucose (OGTT),"blood glucose; time 30, mouse 3",258
same,blood glucose (OGTT),"blood glucose; time 30, mouse 4",409
same,blood glucose (OGTT),"blood glucose; time 30, mouse 5",526
same,blood glucose (OGTT),"blood glucose; time 60, mouse 1",273
same,blood glucose (OGTT),"blood glucose; time 60, mouse 2",303
same,blood glucose (OGTT),"blood glucose; time 60, mouse 3",206
same,blood glucose (OGTT),"blood glucose; time 60, mouse 4",300
same,blood glucose (OGTT),"blood glucose; time 60, mouse 5",355
same,blood glucose (OGTT),"blood glucose; time 120, mouse 1",211
same,blood glucose (OGTT),"blood glucose; time 120, mouse 2",262
same,blood glucose (OGTT),"blood glucose; time 120, mouse 3",257
same,blood glucose (OGTT),"blood glucose; time 120, mouse 4",275
same,blood glucose (OGTT),"blood glucose; time 120, mouse 5",308
same,IR activation,IR R14W,reduced insulin-dependent IR activation
same,IR downregulation,"IR; 50U/kg, i.p., 3 consecutive days",not significantly downregulated
same,IR downregulation,IR; one hour after insulin 0.1U/kg or S597 0.15U/kg,not significantly downregulated
